# Results as given in patent US8481555B2, “Aza-bicyclic amine N-oxide compounds as alpha-7 nicotinic acetylcholine receptor ligand pro-drugs” (Bristol-Myers Squibb Company, priority 2010, dated 2013).
# Where two headings read alike, the source gives them in different places.
# Experiments:
# [1] = Conversion of Compound B to Compound A in the dog (IV infusion and oral gavage, crossover); format: in vivo, male beagle dogs; conditions: for AUC(0-t): analyte as labelled, read-out: AUC(0-24 h)
# Method: (§1) The following section details the liquid chromatography with tandem mass spectrometry (LC/MS/MS)-based bioanalytical methods developed to support the analysis of the in vivo biological samples (brain, plasma, urine) from studies conducted in the dog and rat.
# (§2) Sample Preparation: Blood, Plasma, Serum, Urine. Plasma and blood samples were prepared as described below. If dilutions were required, an aliquot of the sample was diluted into the respective matrix. For the analysis of urine samples, an aliquot was first diluted into blank plasma and then treated as described below.
# (§3) Sample preparation was conducted manually or on a Packard MultiPROBE automated liquid handler. The internal standard (IS) solution (1000 nM (S,E)-5-bromo-N-(1′-azaspiro[oxazolidine-5,3′-bicyclo[2.2.2]octane]-2-ylidene)pyrazin-2-amine) was prepared in acetonitrile. Two hundred microliters of the IS solution was added to each well of a Strata protein precipitation filter plate (Phenomenex, Torrance, Calif.). Biological samples (60 μL) were added to the filter plate. The filter plate was attached atop a standard 96 well plate and the entire unit was centrifuged at 1100 rpm for 2 minutes. The supernatant was collected in the 96 well plate. Five microliters of each sample was injected onto the LC/MS/MS system for analysis.
# (§4) Instrumentation. The UHPLC system used was an Agilent 1200 series (Agilent Technologies, Wilmington, Del.) coupled with CTC Analytics HTS PAL Auto Sampler (Leap Technologies, Carrboro, N.C.) that was equipped with a cooling stack so that samples were maintained at 10° C. during analysis. The analytical column used was a Waters Acquity HSS T3 (2.1×50 mm, 1.8 um particles) at 60° C. The mobile phase, which consisted of 0.1% formic acid in water (A) and 0.1% formic acid in acetonitrile (B), was delivered at a flow rate of 0.6 mL/min.
# (§5) The UHPLC was interfaced to an API4000 QTrap LC/MS/MS System® (AppliedBiosystems/MDS Sciex, Foster City, Calif.) equipped with an electrospray ionization interface operating in the positive ionization mode. The source temperature was 500° C. Detection of each analyte was achieved through selected reaction monitoring. Ions representing the precursor (M+H)^+ species for Compound A, Compound B, and the IS were selected in quadrupole 1 and collisionally dissociated with nitrogen to generate specific product ions, which were subsequently monitored by quadrupole 3.
# (§6) Standard Curve Ranges. Unless otherwise specified, the analysis of Compound A and Compound B were conducted against a standard curve ranging from 0.6 to 1,250 nM and 4.8 to 5,000 nM, respectively. The standard curve was fitted with a linear regression weighted by the square of the reciprocal concentration (1/x^2). Standards were analyzed in duplicate. Quality control samples were prepared in blank biological matrix at concentration levels within the range of the standard curve. The predicted concentrations of more than 80% of the QCs from various different matrices were within 20% of nominal values, indicating acceptable assay performance.
# Conversion of N-oxide, Compound B, to Compound A in the dog. The conversion of Compound B to Compound A was evaluated in a crossover-design study in male beagle dogs. Three animals (5 to 8 kg) received Compound B by IV infusion (1 mg/kg over 5 minutes) via a cephalic vein and by oral gavage (5 mg/kg), with a 1-week washout between treatments. Serial blood samples (˜0.3 mL) were collected from a saphenous vein predose and at (0.083, 0.17 IV only), 0.25, 0.5, 0.75, 1, 2, 4, 6, 8, and 24 hours post dose, followed by centrifugation at 4° C. (1500-2000×g) to obtain plasma. Samples were stored at −20° C. until analysis by LC/MS/MS.
# Table VI summarizes the PK parameters of Compound B and the appearance of Compound A following a single dose in dogs. Following either an IV or PO dose, the conversion of Compound B to Compound A was observed; however, it was more extensive after oral dosing. […]
# [2] = Conversion of Compound B to Compound A in the rat (intra-duodenal infusion, portal vein sampling); format: in vivo, male Sprague-Dawley rats; conditions: intra-duodenal infusion of Compound B 10 mg/kg, analyte as labelled; for AUC(0-t): 10 mg/kg; for AUC(0-t) / Cmax: fasted, PVC collection, plasma
# Method: as §1, §2, §3, §4, §5, §6
# Conversion of N-oxide, Compound B, to Compound A in the rat. The conversion of Compound B to Compound A was evaluated in male Sprague-Dawley rats (260-280 g) Animals (N=3 per group) received Compound B as an intra-duodenal infusion (10 mg/kg over 10 minutes) via an indwelling intra-duodenal cannula (IDC) with collection via the intra-portal vein. Serial blood samples were obtained predose and at 0.17, 0.25, 0.5, 0.75, 1, 2, 4, 6, 8, and 24 hours post dose. Plasma samples, obtained by centrifugation at 4° C. (1500-2000×g), were stored at −20° C. until analysis.
# All conversion studies in rats were performed in animals containing indwelling cannulas in the duodenum and portal vein. The studies were designed to isolate the role of the GI tract in the reduction of Compound B. Table IV summarizes the exposure of Compound B and Compound A in the portal vein following an intra-duodenal infusion of Compound B in the rat. […]
# [3] = Conversion of Compound B to Compound A in the dog (IV infusion and oral gavage, crossover); format: in vivo, male beagle dogs; conditions: plasma
# [4] = fed, IV infusion of Compound B 1 mg/kg, plasma
# [5] = male, beagle, fasted, oral gavage of Compound B 5 mg/kg, plasma
# [6] = male, beagle, fed, IV infusion of Compound B 1 mg/kg, plasma
# [7] = male, Sprague-Dawley, in vivo, read-out: AUC(0-4)
# [8] = male, Sprague-Dawley, in vivo, read-out: Plasma concentration in the portal vein
SMILES,"AUC(0-t) [1, 5] [µM·h]","AUC(0-t) [1, 6] [µM·h]","AUC(0-t) [2, 7] [µM·h]","Cmax ([2]; male, Sprague-Dawley, in vivo) [nM]","concentration at 0.167 h [2, 8] [nM]","concentration at 0.25 h [2, 8] [nM]","concentration at 0.5 h [2, 8] [nM]","concentration at 0.75 h [2, 8] [nM]","concentration at 1 h [2, 8] [nM]","concentration at 2 h [2, 8] [nM]","concentration at 4 h [2, 8] [nM]",also measured
"[O-][N+]12CCC(CC1)[C@]1(CN=C(Nc3cc4ccccc4cn3)O1)C2 [Compound B, (S)-2-(Isoquinolin-3-ylamino)-4H-1′-azaspiro[oxazole-5,3′-bicyclo[2.2.2]octane]1′-oxide]",5.16 ± 0.68,3.84 ± 0.92,0.34 ± 0.04,760 ± 240,601,758,177,90,69,52,18,"CLTp [1, 4]: 13.7 ± 4.0 mL/min/kg; T-HALF [1, 4]: 9.4 ± 6.5 h; AUC(0-inf) [1, 5]: 5.69 ± 0.39 µM·h; Cmax [1, 5]: 850 ± 460 nM; AUC(0-inf) [1, 6]: 3.94 ± 1.01 µM·h; Vd ([1]; male, beagle, fed, IV infusion of Compound B 1 mg/kg, plasma, read-out: Vss): 2 ± 0.2 L/kg; bioavailability ([1]; male, beagle, plasma, fasted, oral gavage of Compound B 5 mg/kg): 27 ± 15%; Plasma concentration in the portal vein ([2]; 6 hours): < LLQ; Plasma concentration in the portal vein ([2]; 8 hours): < LLQ; Plasma concentration in the portal vein ([2]; 24 hours): < LLQ"
"c1ccc2cc(NC3=NC[C@@]4(CN5CCC4CC5)O3)ncc2c1 [Compound A, (R)—N-(isoquinolin-3-yl)-4H-1′-azaspiro[oxazole-5,3′-bicyclo[2.2.2]octan]-2-amine]",0.7 ± 0.2,0.03,1.22 ± 1.1,860 ± 340,3,7,112,207,448,750,455,"AUC of Compound A after IV Compound B as percent of the AUC of Compound A after IV administration of Compound A ([1]; IV): ~3%; AUC of Compound A after PO Compound B as percent of the oral AUC of Compound A after PO Compound A alone ([1]; PO): roughly 40%; AUC ([3]; male, beagle, PO dosing of Compound B (10 mg/kg as printed in text), read-out: plasma AUC of Compound A after PO dosing of Compound B): 0.7 µM·h; AUC ([3]; PO administration of Compound A alone, read-out: oral AUC of Compound A following PO administration of Compound A alone): 1.74 µM·h; AUC(0-t) ([2]; male, Sprague-Dawley, in vivo, read-out: AUC(0-24 h)): 2.55 ± 1.93 µM·h; concentration at 6 h ([2]; male, Sprague-Dawley, in vivo, 6 hours, read-out: Plasma concentration in the portal vein): 434 nM; concentration at 8 h ([2]; male, Sprague-Dawley, in vivo, 8 hours, read-out: Plasma concentration in the portal vein): 125 nM; concentration at 24 h ([2]; male, Sprague-Dawley, in vivo, 24 hours, read-out: Plasma concentration in the portal vein): 6 nM"
